According to patent US6737383B1, “Herbicidal oxadiazolidines” (priority 1999, dated 2004):

What was measured:
bedstraw = assay: Test B pre/postemergence bedstraw; format: in vivo, Galium aparine
In short: (§1)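 Test chemicals in a non-phytotoxic solvent mixture with surfactant were sprayed preemergence onto planted seeds and postemergence onto plants 2 to 18 cm tall (1- to 4-leaf stage). After twelve to sixteen days in a greenhouse, injury was visually rated against untreated controls from 0 (no effect) to 10 (complete control).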

blackgrass = assay: Test B pre/postemergence blackgrass; format: in vivo, Alopecurus myosuroides
In short: as §1

surinam grass = assay: Test B pre/postemergence surinam grass; format: in vivo, Brachiaria decumbens
In short: as §1

cocklebur = assay: Test B pre/postemergence cocklebur; format: in vivo, Xanthium strumarium
In short: as §1

crabgrass = assay: Test B pre/postemergence crabgrass; format: in vivo, Digitaria sanguinalis
In short: as §1

giant foxtail = assay: Test B pre/postemergence giant foxtail; format: in vivo, Setaria faberii
In short: as §1

morningglory = assay: Test B pre/postemergence morningglory; format: in vivo, Ipomoea hederacea
In short: as §1

pigweed = assay: Test B pre/postemergence pigweed; format: in vivo, Amaranthus retroflexus
In short: as §1

sugar beet = assay: Test B pre/postemergence sugar beet; format: in vivo, Beta vulgaris
In short: as §1

velvetleaf = assay: Test B pre/postemergence velvetleaf; format: in vivo, Abutilon theophrasti
In short: as §1

wheat = assay: Test B pre/postemergence wheat; format: in vivo, Triticum aestivum
In short: as §1

wild oat = assay: Test B pre/postemergence wild oat; format: in vivo, Avena fatua
In short: as §1

purple nutsedge = assay: Test B pre/postemergence purple nutsedge; format: in vivo, Cyperus rotundus
In short: as §1

rice = assay: Test B flood test rice; format: in vivo, Oryza sativa
In short: (§2)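 Read-out is a visual response score from 0 (no effect) to 10 (complete control), assigned by comparison with untreated controls. Treatment was applied at the 2-leaf stage, and plants stayed in the greenhouse for twelve to sixteen days before scoring.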

duck salad = assay: Test B flood test duck salad; format: in vivo, Heteranthera limosa
In short: as §2

bamyardgrass = assay: Test B flood test barnyardgrass; format: in vivo, Echinochloa crus-galli
In short: as §2

[1] = Postemergence, Rate 125 g/ha, scale 0 to 10, 0 is no effect, 10 is complete control
[2] = Postemergence, Rate 250 g/ha, scale 0 to 10, 0 is no effect, 10 is complete control
[3] = Postemergence, Rate 500 g/ha, scale of 0 to 10 where 0 is no effect and 10 is complete control
[4] = Preemergence, Rate 62 g/ha, scale 0 to 10 (0 no effect, 10 complete control)
[5] = Preemergence, Rate 125 g/ha, scale of 0 to 10 where 0 is no effect and 10 is complete control
[6] = Preemergence, Rate 250 g/ha, scale of 0 to 10 where 0 is no effect and 10 is complete control
[7] = Preemergence, Rate 500 g/ha, scale 0 to 10, 0 is no effect, 10 is complete control
[8] = Rate 62 g/ha, Postemergence, scale of 0 to 10 where 0 is no effect and 10 is complete control
[9] = Preemergence, Rate 250 g/ha, scale 0 to 10, 0 is no effect, 10 is complete control
[10] = Rate 62 g/ha, flood test species, Pre-emergence, visual evaluation after twelve to sixteen days
[11] = Rate 125 g/ha, under heading Pre-emergence, flood test species, visual evaluation after twelve to sixteen days
[12] = Rate 250 g/ha, Pre-emergence, flood-test species, scale 0 to 10, 0 is no effect, 10 is complete control
[13] = Rate 500 g/ha, Pre-emergence, flood test species, scale 0 to 10 (0 no effect, 10 complete control)

## CC(C)N(C(=O)n1oc(=O)n(CC#N)c1=O)c1ccc(F)cc1 [Compound 395]
bedstraw; [1]
  Plant response rating, Bedstraw: 0
bedstraw; [2]
  Plant response rating, Bedstraw: 0
bedstraw; [3]
  Bedstraw plant response rating: 4
bedstraw; [4]
  Plant response rating, Bedstraw: 0
bedstraw; [5]
  Plant response rating, Bedstraw: 0
bedstraw; [6]
  Bedstraw plant response rating: 0
bedstraw; [7]
  Bedstraw plant response rating: 0
bedstraw; [8]
  Bedstraw plant response rating: 0
blackgrass; [1]
  Plant response rating, Blackgrass: 0
blackgrass; [2]
  Plant response rating, Blackgrass: 0
blackgrass; [3]
  Blackgrass plant response rating: 5
blackgrass; [4]
  Plant response rating, Blackgrass: 0
blackgrass; [5]
  Plant response rating, Blackgrass: 0
blackgrass; [6]
  Blackgrass plant response rating: 0
blackgrass; [7]
  Blackgrass plant response rating: 0
blackgrass; [8]
  Blackgrass plant response rating: 0
Surinam grass; [1]
  Plant response rating, B. signalgrass: 0
Surinam grass; [2]
  Plant response rating, B. signalgrass: 0
Surinam grass; [3]
  B. signalgrass plant response rating: 0
Surinam grass; [4]
  Plant response rating, B. signalgrass: 0
Surinam grass; [5]
  Plant response rating, B. signalgrass: 0
Surinam grass; [6]
  B. signalgrass plant response rating: 0
Surinam grass; Preemergence, Rate 500 g/ha, scale of 0 to 10 where 0 is no effect and 10 is complete control
  B. signalgrass plant response rating: 0
Surinam grass; [8]
  B. signalgrass plant response rating: 0
cocklebur; [1]
  Plant response rating, Cocklebur: 0
cocklebur; [2]
  Plant response rating, Cocklebur: 0
cocklebur; [3]
  Cocklebur plant response rating: 0
cocklebur; [4]
  Plant response rating, Cocklebur: 0
cocklebur; [5]
  Plant response rating, Cocklebur: 0
cocklebur; [9]
  Cocklebur plant response rating: 0
cocklebur; [7]
  Cocklebur plant response rating: 0
cocklebur; [8]
  Cocklebur plant response rating: 0
crabgrass; [1]
  Plant response rating, Crabgrass: 2
crabgrass; [2]
  Plant response rating, Crabgrass: 2
crabgrass; [3]
  Crabgrass plant response rating: 5
crabgrass; [4]
  Plant response rating, Crabgrass: 0
crabgrass; [5]
  Plant response rating, Crabgrass: 0
crabgrass; [9]
  Crabgrass plant response rating: 0
crabgrass; [7]
  Crabgrass plant response rating: 2
crabgrass; [8]
  Crabgrass plant response rating: 0
Giant foxtail; [1]
  Plant response rating, Giant foxtail: 3
Giant foxtail; [2]
  Plant response rating, Giant foxtail: 5
Giant foxtail; [3]
  Giant foxtail plant response rating: 6
Giant foxtail; [4]
  Plant response rating, Giant foxtail: 0
Giant foxtail; [5]
  Plant response rating, Giant foxtail: 0
Giant foxtail; [9]
  Giant foxtail plant response rating: 0
Giant foxtail; [7]
  Giant foxtail plant response rating: 2
Giant foxtail; [8]
  Giant foxtail plant response rating: 0
morningglory; [2]
  Plant response rating, Morningglory: 0
morningglory; [4]
  Plant response rating, Morningglory: 0
morningglory; [5]
  Plant response rating, Morningglory: 0
morningglory; [9]
  Morningglory plant response rating: 0
morningglory; [7]
  Morningglory plant response rating: 0
morningglory; [8]
  Morningglory plant response rating: 0
pigweed; [2]
  Plant response rating, Redroot pigweed: 0
pigweed; [3]
  Redroot pigweed plant response rating: 0
pigweed; [4]
  Plant response rating, Redroot pigweed: 0
pigweed; [5]
  Plant response rating, Redroot pigweed: 0
pigweed; [9]
  Redroot pigweed plant response rating: 0
pigweed; [7]
  Redroot pigweed plant response rating: 0
pigweed; [8]
  Redroot pigweed plant response rating: 0
Sugar beet; [2]
  Plant response rating, Sugarbeets: 0
Sugar beet; [3]
  Sugarbeets plant response rating: 0
Sugar beet; [4]
  Plant response rating, Sugarbeets: 0
Sugar beet; [5]
  Plant response rating, Sugarbeets: 0
Sugar beet; [9]
  Sugarbeets plant response rating: 0
Sugar beet; [7]
  Sugarbeets plant response rating: 0
Sugar beet; [8]
  Sugarbeets plant response rating: 0
velvetleaf; [2]
  Plant response rating, Velvetleaf: 2
velvetleaf; [3]
  Velvetleaf plant response rating: 2
velvetleaf; [4]
  Plant response rating, Velvetleaf: 0
velvetleaf; [5]
  Plant response rating, Velvetleaf: 0
velvetleaf; [9]
  Velvetleaf plant response rating: 0
velvetleaf; [7]
  Velvetleaf plant response rating: 0
velvetleaf; [8]
  Velvetleaf plant response rating: 0
wheat; [3]
  Wheat plant response rating: 3
wheat; [4]
  Plant response rating, Wheat: 0
wheat; [5]
  Plant response rating, Wheat: 0
wheat; [9]
  Wheat plant response rating: 0
wheat; [7]
  Wheat plant response rating: 0
wheat; [8]
  Wheat plant response rating: 0
Wild oat; [3]
  Wild oats plant response rating: 3
Wild oat; [4]
  Plant response rating, Wild oats: 0
Wild oat; [5]
  Plant response rating, Wild oats: 0
Wild oat; [9]
  Wild oats plant response rating: 0
Wild oat; [7]
  Wild oats plant response rating: 0
Wild oat; [8]
  Wild oats plant response rating: 0
Purple nutsedge; [2]
  Plant response rating, Nutsedge: 0
Purple nutsedge; [3]
  Nutsedge plant response rating: 0
Purple nutsedge; [4]
  Plant response rating, Nutsedge: 0
Purple nutsedge; [5]
  Plant response rating, Nutsedge: 0
Purple nutsedge; [9]
  Nutsedge plant response rating: 0
Purple nutsedge; [7]
  Nutsedge plant response rating: 0
Purple nutsedge; [8]
  Nutsedge plant response rating: 0
rice; [10]
  Plant response rating, Rice (0 to 10 scale, 0 is no effect, 10 is complete control): 0
rice; [11]
  Rice plant response rating (0 to 10 scale, 0 is no effect, 10 is complete control): 0
rice; [12]
  Rice plant response rating: 0
rice; [13]
  Rice plant response rating: 0
Duck salad; [10]
  Plant response rating, Ducksalad (0 to 10 scale, 0 is no effect, 10 is complete control): 0
Duck salad; [11]
  Ducksalad plant response rating (0 to 10 scale, 0 is no effect, 10 is complete control): 0
Duck salad; [12]
  Ducksalad plant response rating: 0
Duck salad; [13]
  Ducksalad plant response rating: 0
bamyardgrass; [10]
  Plant response rating, Barnyardgrass (0 to 10 scale, 0 is no effect, 10 is complete control): 0
bamyardgrass; [11]
  Barnyardgrass plant response rating (0 to 10 scale, 0 is no effect, 10 is complete control): 0
bamyardgrass; [12]
  Barnyardgrass plant response rating: 0
bamyardgrass; [13]
  Barnyardgrass plant response rating: 0
